Experimental data from ChEMBL document CHEMBL1275276, “Analysis of physico-chemical properties of substrates of ABC and MFS multidrug transporters of pathogenic Candida albicans” (2010).
Activity calls are given as the source filed them. The rule behind the calls is not given here. Numbered stars: 1 amine (or outer) side, 2 acyl side, 3 side chain; on linkers, the order of the positions; unused ones are H or OH. Bridge positions count the residues as written; N and C are the ends. Square brackets hold non-standard residues; d marks the D form. Peptide text beside a SMILES is read from it. I, II: the chains in the order shown. Actinocin(1to9) = Cc1c2oc3c(C)ccc(C(=O)[*:2])c3nc-2c(C(=O)[*:1])c(N)c1=O; NMeV = CN[C@H](C(=O)O)C(C)C; Sar = CNCC(=O)O

Columns and labels:
[1] = tested on: Saccharomyces cerevisiae; test: Antifungal activity against yeast AD1-8u expressing Candida albicans CaCdr1p by agar disk diffusion assay; type: functional
[2] = tested on: Candida albicans; test: Binding affinity to Candida albicans CaCdr1p expressed in yeast AD1-8u
[3] = tested on: Saccharomyces cerevisiae; test: Antifungal activity against yeast AD1-8u expressing Candida albicans CaMdr1p by agar disk diffusion assay; type: functional; note: test concentration or dose not given here
[4] = tested on: Candida albicans; test: Binding affinity to Candida albicans CaMdr1p expressed in yeast AD1-8u
Throughout, for IZ: test concentration or dose not given here.

Row | SMILES | inhibition zone (IZ) [1] | Activity [2] | inhibition zone (IZ) [3] | Activity [4]
1 | COc1ccc(C[C@H]2NC[C@H](O)[C@H]2OC(C)=O)cc1 [ANISOMYCIN] | 0.9 cm | Active | 0.7 cm | Active
2 | Clc1ccccc1C(c1ccccc1)(c1ccccc1)n1ccnc1 [CLOTRIMAZOLE] | 0.7 cm | Active | 0 cm | inactive
3 | O=C(N[C@H](CO)[C@H](O)c1ccc([N+](=O)[O-])cc1)C(Cl)Cl [CHLORAMPHENICOL] | 0.8 cm | Active | 0 cm | inactive
4 | COC(=O)C1=C(C)NC(C)=C(C(=O)OCCCN2CCC(c3ccccc3)(c3ccccc3)CC2)[C@H]1c1cccc([N+](=O)[O-])c1 [NIGULDIPINE] | 0.5 cm | Active | 0.2 cm | inactive
5 | CON(C)C(=O)Nc1ccc(Cl)c(Cl)c1 [LINURON] | 0.8 cm | Active | 0.6 cm | Active
6 | COc1cccc2c1C(=O)c1c(O)c3c(c(O)c1C2=O)C[C@@](O)(C(C)=O)C[C@@H]3O[C@H]1C[C@H](N)[C@H](O)[C@H](C)O1 [DAUNORUBICIN] | 0.5 cm | Active | 0 cm | inactive
7 | Nc1nc(=O)[nH]cc1F [FLUCYTOSINE] | 0 cm | inactive | 0 cm | inactive
8 | COc1ccc2cc3[n+](cc2c1OC)CCc1cc2c(cc1-3)OCO2.[Cl-] [BERBERINE CHLORIDE] | 0.5 cm | Active | 0 cm | inactive
9 | COc1ccc(CCN(C)CCCC(C#N)(c2ccc(OC)c(OC)c2)C(C)C)cc1OC (stereo not given) | 0.9 cm | Active | 0 cm | inactive
10 | CC[C@@]1(O)C(=O)OCc2c1cc1n(c2=O)Cc2cc3c(CN(C)C)c(O)ccc3nc2-1 [TOPOTECAN] | 0.5 cm | Active | 0.2 cm | inactive
11 | COc1ccc2c(c1)c(CC(=O)O)c(C)n2C(=O)c1ccc(Cl)cc1 [INDOMETHACIN] | 0 cm | inactive | 0 cm | inactive
12 | C[C@@H]1C[C@H]2[C@@H]3CCC4=CC(=O)C=C[C@]4(C)[C@@]3(F)[C@@H](O)C[C@]2(C)[C@@]1(O)C(=O)CO [DEXAMETHASONE] | 0.9 cm | Active | 0 cm | inactive
13 | OC(Cn1cncn1)(Cn1cncn1)c1ccc(F)cc1F [FLUCONAZOLE] | 2.3 cm | Active | 1.6 cm | Active
14 | CCCCCCCCCCCC(=O)OCCN(C)C | 0.4 cm | Active | 0.2 cm | inactive
15 | Cc1c2oc3c(C)ccc(C(=O)N[C@@H]4C(=O)N[C@H](C(C)C)C(=O)N5CCC[C@H]5C(=O)N(C)CC(=O)N(C)[C@@H](C(C)C)C(=O)O[C@@H]4C)c3nc-2c(C(=O)N[C@@H]2C(=O)N[C@H](C(C)C)C(=O)N3CCC[C@H]3C(=O)N(C)CC(=O)N(C)[C@@H](C(C)C)C(=O)O[C@@H]2C)c(N)c1=O [DACTINOMYCIN] (I: T[dV]P[Sar][NMeV] / II: T[dV]P[Sar][NMeV]; ester I:1-I:C, II:1-II:C; linker I:N-II:N via Actinocin(1to9)) | 0.1 cm | inactive | 0.3 cm | Active
16 | OCCN1CCN(CCCN2c3ccccc3Sc3ccc(C(F)(F)F)cc32)CC1 [FLUPHENAZINE] | 0.3 cm | Active | 0.2 cm | inactive
17 | COC(=O)c1ccccc1-c1c2ccc(=N)cc-2oc2cc(N)ccc12.Cl [RHODAMINE123] | 1 cm | Active | 0.1 cm | inactive
18 | COc1cc2c(c(OC)c1OC)-c1ccc(OC)c(=O)cc1[C@@H](NC(C)=O)CC2 [COLCHICINE] | 0 cm | inactive | 0 cm | inactive

Row | SMILES | inhibition zone (IZ) [1] | Activity [2] | inhibition zone (IZ) [3] | Activity [4]
19 | CC(=O)O[C@H]1C(=O)[C@@]2(C)[C@H]([C@H](OC(=O)c3ccccc3)[C@]3(O)C[C@H](OC(=O)[C@H](O)[C@@H](NC(=O)c4ccccc4)c4ccccc4)C(C)=C1C3(C)C)[C@]1(OC(C)=O)CO[C@@H]1C[C@@H]2O [PACLITAXEL] | 0 cm | inactive | 0 cm | inactive
20 | C=C[C@H]1CN2CC[C@H]1C[C@@H]2[C@@H](O)c1ccnc2ccc(OC)cc12 [QUINIDINE] | 0.8 cm | Active | 0.8 cm | Active
21 | CCC(=O)Nc1ccc(Cl)c(Cl)c1 [PROPANIL] | 0.3 cm | Active | 0.9 cm | Active
22 | O=P1(N(CCCl)CCCl)NCCCO1 (stereo not given) [CYCLOPHOSPHAMIDE ANHYDROUS] | 0 cm | inactive | 0 cm | inactive
23 | CC/N=c1\cc2oc3cc(NCC)c(C)cc3c(-c3ccccc3C(=O)OCC)c-2cc1C.Cl [RHODAMINE 6G HYDROCHLORIDE] | 0.8 cm | Active | 0.2 cm | inactive
24 | COC(=O)C1=C(C)NC(C)=C(C(=O)OC)C1c1ccccc1[N+](=O)[O-] [NIFEDIPINE] | 0 cm | inactive | 0 cm | inactive
25 | C[C@]12CC[C@@H]3c4ccc(OS(=O)(=O)O)cc4CC[C@H]3[C@@H]1CCC2=O [ESTRONE SULFURIC ACID] | 0 cm | inactive | 0 cm | inactive
26 | Oc1cccc2cccnc12 [OXYQUINOLINE] | 0 cm | inactive | 0 cm | inactive
27 | O=[N+]([O-])c1cc[n+]([O-])c2ccccc12 [4-NITROQUINOLINE-1-OXIDE] | 0.3 cm | Active | 0.4 cm | Active
28 | COCCOC(=O)C1=C(C)NC(C)=C(C(=O)OC(C)C)C1c1cccc([N+](=O)[O-])c1 (stereo not given) [NIMODIPINE] | 0 cm | inactive | 0 cm | inactive
29 | CN(C/C=C/C#CC(C)(C)C)Cc1cccc2ccccc12 [TERBINAFINE] | 1.2 cm | Active | 0 cm | inactive
30 | O=C1c2c(O)ccc(O)c2C(=O)c2c(NCCNCCO)ccc(NCCNCCO)c21 [MITOXANTRONE] | 0.2 cm | inactive | 0.3 cm | Active
31 | CC(=O)[C@H]1CC[C@H]2[C@@H]3CCC4=CC(=O)CC[C@]4(C)[C@H]3CC[C@]12C [PROGESTERONE] | 0 cm | inactive | 0 cm | inactive
32 | CO[C@@H]1[C@@H](OC(N)=O)[C@@H](O)[C@H](Oc2ccc3c(O)c(NC(=O)c4ccc(O)c(CC=C(C)C)c4)c(=O)oc3c2C)OC1(C)C [NOVOBIOCIN] | 0 cm | inactive | 0 cm | inactive
33 | C[C@@H]1C[C@@H]([C@H](O)CC2CC(=O)NC(=O)C2)C(=O)[C@@H](C)C1 [CYCLOHEXIMIDE] | 1.2 cm | Active | 0.8 cm | Active
34 | CO[C@H]1/C=C/O[C@@]2(C)Oc3c(C)c(O)c4c(O)c(c(/C=N/N5CCN(C)CC5)c(O)c4c3C2=O)NC(=O)/C(C)=C\C=C\[C@H](C)[C@H](O)[C@@H](C)[C@@H](O)[C@@H](C)[C@H](OC(C)=O)[C@@H]1C [RIFAMPIN] | 0 cm | inactive | 0 cm | inactive
35 | CN(Cc1cnc2nc(N)nc(N)c2n1)c1ccc(C(=O)N[C@@H](CCC(=O)O)C(=O)O)cc1 [METHOTREXATE] | 0.1 cm | inactive | 0.8 cm | Active
